PubChem BioAssay AID1963975 (Molecular Pharmacology Branch, DTP, NCI, 2024)

System: 624824-186-R-J2-PDC multicell spheroids, viability
Experiment: Anticancer human tumor 624824-186-R-J2-PDC patient-derived colon adenocarcinoma cell line growth inhibition [PI3K]
Settings: for viability, T/C: stronger effect = lower value
How it was run: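 Targeted small molecules plus PI3K inhibitors, half-log dose series from Cmax (default top 10 microM), were applied to heterotypic spheroids of cancer cells with HUVEC and MSCs. Viability indicated growth inhibition.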

[1] = curve of first compound, second compound 0.0316 µM
[2] = curve of first compound, second compound 0.1 µM
[3] = curve of first compound, second compound 0.316 µM
[4] = curve of first compound, second compound 1 µM
[5] = curve of first compound, second compound 3.16 µM
[6] = curve of first compound, second compound 10 µM
[7] = second compound 0.0316 µM, first compound 0.0316 µM
[8] = second compound 0.0316 µM, first compound 0.1 µM
[9] = second compound 0.1 µM, first compound 0.0316 µM
[10] = second compound 0.1 µM, first compound 0.1 µM
[11] = second compound 0.316 µM, first compound 0.0316 µM
[12] = second compound 0.316 µM, first compound 0.1 µM
[13] = second compound 1 µM, first compound 0.0316 µM
[14] = second compound 1 µM, first compound 0.1 µM
[15] = second compound 3.16 µM, first compound 0.0316 µM
[16] = second compound 3.16 µM, first compound 0.1 µM
[17] = second compound 10 µM, first compound 0.0316 µM
[18] = second compound 10 µM, first compound 0.1 µM
[19] = second compound 0.0316 µM, first compound 0.316 µM
[20] = second compound 0.0316 µM, first compound 1 µM
[21] = second compound 0.0316 µM, first compound 3.16 µM
[22] = second compound 0.0316 µM, first compound 10 µM
[23] = second compound 0.1 µM, first compound 0.316 µM
[24] = second compound 0.1 µM, first compound 1 µM
[25] = second compound 0.1 µM, first compound 3.16 µM
[26] = second compound 0.1 µM, first compound 10 µM
[27] = second compound 0.316 µM, first compound 0.316 µM
[28] = second compound 0.316 µM, first compound 1 µM
[29] = second compound 0.316 µM, first compound 3.16 µM
[30] = second compound 0.316 µM, first compound 10 µM
[31] = second compound 1 µM, first compound 0.316 µM
[32] = second compound 1 µM, first compound 1 µM
[33] = second compound 1 µM, first compound 3.16 µM
[34] = second compound 1 µM, first compound 10 µM
[35] = second compound 3.16 µM, first compound 0.316 µM
[36] = second compound 3.16 µM, first compound 1 µM
[37] = second compound 3.16 µM, first compound 3.16 µM
[38] = second compound 3.16 µM, first compound 10 µM
[39] = second compound 10 µM, first compound 0.316 µM
[40] = second compound 10 µM, first compound 1 µM
[41] = second compound 10 µM, first compound 3.16 µM
[42] = second compound 10 µM, first compound 10 µM
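Also: spheroids exposed to agents for 7 days before viability read.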
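For viability, T/C in this document: 100% = DMSO vehicle treated spheroids.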

For `Cn1ncnc1[C@H]1c2n[nH]c(=O)c3cc(F)cc(c23)N[C@@H]1c1ccc(F)cc1` + Cc1nc(NC(=O)N2CCCC2C(N)=O)sc1-c1ccnc(C(C)(C)C(F)(F)F)c1, the IC50 [1] was greater than 0.1 µM, the IC50 [2] was greater than 0.1 µM and the IC50 [3] was greater than 0.1 µM. For the same molecule, the IC50 [4] was greater than 0.1 µM, the IC50 [5] was greater than 0.1 µM and the IC50 [6] was greater than 0.1 µM. For the same molecule, the viability, T/C (second compound 0.0316 µM, first compound 0.000316 µM) was 89.5%, the viability, T/C (second compound 0.0316 µM, first compound 0.001 µM) was 79.8% and the viability, T/C (second compound 0.0316 µM, first compound 0.00316 µM) was 79.5%. It also gave a viability, T/C (second compound 0.0316 µM, first compound 0.01 µM) of 106%, a viability, T/C [7] of 89% and a viability, T/C [8] of 101%. For the same molecule, the viability, T/C (second compound 0.1 µM, first compound 0.000316 µM) was 91.8%, the viability, T/C (second compound 0.1 µM, first compound 0.001 µM) was 87.4% and the viability, T/C (second compound 0.1 µM, first compound 0.00316 µM) was 105%. The viability, T/C (second compound 0.1 µM, first compound 0.01 µM) was 80.9%, the viability, T/C [9] was 70.2% and the viability, T/C [10] was 86.4%. It also gave a viability, T/C (second compound 0.316 µM, first compound 0.000316 µM) of 95.4%, a viability, T/C (second compound 0.316 µM, first compound 0.001 µM) of 92.9% and a viability, T/C (second compound 0.316 µM, first compound 0.00316 µM) of 101%. It also gave a viability, T/C (second compound 0.316 µM, first compound 0.01 µM) of 88%, a viability, T/C [11] of 108% and a viability, T/C [12] of 80.4%. The viability, T/C (second compound 1 µM, first compound 0.000316 µM) was 88.3%, the viability, T/C (second compound 1 µM, first compound 0.001 µM) was 102% and the viability, T/C (second compound 1 µM, first compound 0.00316 µM) was 78.1%. For the same molecule, the viability, T/C (second compound 1 µM, first compound 0.01 µM) was 97.1%, the viability, T/C [13] was 101% and the viability, T/C [14] was 86.3%. For the same molecule, the viability, T/C (second compound 3.16 µM, first compound 0.000316 µM) was 86.8%, the viability, T/C (second compound 3.16 µM, first compound 0.001 µM) was 78.6% and the viability, T/C (second compound 3.16 µM, first compound 0.00316 µM) was 76.3%. It also gave a viability, T/C (second compound 3.16 µM, first compound 0.01 µM) of 82.9%, a viability, T/C [15] of 92.4% and a viability, T/C [16] of 82.1%. The viability, T/C (second compound 10 µM, first compound 0.000316 µM) was 87.5%, the viability, T/C (second compound 10 µM, first compound 0.001 µM) was 84.7% and the viability, T/C (second compound 10 µM, first compound 0.00316 µM) was 80.3%. It also gave a viability, T/C (second compound 10 µM, first compound 0.01 µM) of 71.8%, a viability, T/C [17] of 77.3% and a viability, T/C [18] of 84.8%.
Molecule `CCCS(=O)(=O)Nc1ccc(F)c(C(=O)c2c[nH]c3ncc(-c4ccc(Cl)cc4)cc23)c1F` + CC(Nc1ncnc2nc[nH]c12)c1cc2cccc(Cl)c2c(=O)n1-c1ccccc1 has an IC50 [1] greater than 10 µM, an IC50 [2] of 8.61 µM and an IC50 [3] greater than 10 µM. The IC50 [4] was 9.47 µM, the IC50 [5] was greater than 10 µM and the IC50 [6] was 6.82 µM. The viability, T/C [7] was 90.2%, the viability, T/C [8] was 74.8% and the viability, T/C [19] was 92.9%. It also gave a viability, T/C [20] of 84%, a viability, T/C [21] of 133% and a viability, T/C [22] of 66.6%. It also gave a viability, T/C [9] of 108%, a viability, T/C [10] of 80.1% and a viability, T/C [23] of 90%. The viability, T/C [24] was 74.8%, the viability, T/C [25] was 128% and the viability, T/C [26] was 43%. For the same molecule, the viability, T/C [11] was 113%, the viability, T/C [12] was 85.1% and the viability, T/C [27] was 72.8%. The viability, T/C [28] was 111%, the viability, T/C [29] was 130% and the viability, T/C [30] was 65.5%. It also gave a viability, T/C [13] of 83.5%, a viability, T/C [14] of 65.2% and a viability, T/C [31] of 81%. The viability, T/C [32] was 103%, the viability, T/C [33] was 125% and the viability, T/C [34] was 47.8%. For the same molecule, the viability, T/C [15] was 110%, the viability, T/C [16] was 88.1% and the viability, T/C [35] was 70.1%. The viability, T/C [36] was 77.3%, the viability, T/C [37] was 109% and the viability, T/C [38] was 52.9%. The viability, T/C [17] was 112%, the viability, T/C [18] was 95% and the viability, T/C [39] was 80.3%. It also gave a viability, T/C [40] of 79.9%, a viability, T/C [41] of 83.4% and a viability, T/C [42] of 35.2%.
In the case of `CC1(C)CCC(CN2CCN(c3ccc(C(=O)NS(=O)(=O)c4ccc(NCC5CCOCC5)c([N+](=O)[O-])c4)c(Oc4cnc5[nH]ccc5c4)c3)CC2)=C(c2ccc(Cl)cc2)C1` + CC(Nc1ncnc2nc[nH]c12)c1cc2cccc(Cl)c2c(=O)n1-c1ccccc1, the IC50 [1] is reported as greater than 10 µM, the IC50 [2] is reported as greater than 10 µM and the IC50 [3] is reported as greater than 10 µM. The IC50 [4] was greater than 10 µM, the IC50 [5] was greater than 10 µM and the IC50 [6] was greater than 10 µM. The viability, T/C [7] was 89.4%, the viability, T/C [8] was 98.6% and the viability, T/C [19] was 77.3%. It also gave a viability, T/C [20] of 81.7%, a viability, T/C [21] of 71.6% and a viability, T/C [22] of 58.4%. It also gave a viability, T/C [9] of 103%, a viability, T/C [10] of 90.7% and a viability, T/C [23] of 91.1%. The viability, T/C [24] was 67.6%, the viability, T/C [25] was 67.2% and the viability, T/C [26] was 58.2%. The viability, T/C [11] was 88.3%, the viability, T/C [12] was 90.7% and the viability, T/C [27] was 68.4%. It also gave a viability, T/C [28] of 79.2%, a viability, T/C [29] of 63.1% and a viability, T/C [30] of 79%. It also gave a viability, T/C [13] of 86.3%, a viability, T/C [14] of 92.3% and a viability, T/C [31] of 80.2%. The viability, T/C [32] was 66.5%, the viability, T/C [33] was 77% and the viability, T/C [34] was 80.4%. It also gave a viability, T/C [15] of 88.5%, a viability, T/C [16] of 106% and a viability, T/C [35] of 73%. It also gave a viability, T/C [36] of 78.9%, a viability, T/C [37] of 86% and a viability, T/C [38] of 106%. The viability, T/C [17] was 103%, the viability, T/C [18] was 102% and the viability, T/C [39] was 108%. For the same molecule, the viability, T/C [40] was 82.2%, the viability, T/C [41] was 92.2% and the viability, T/C [42] was 87%.
For `COc1c(OCCCN2CCOCC2)ccc2c3n(c(=NC(=O)c4cnc(N)nc4)nc12)CCN3`, the viability, T/C (compound 0.01 µM) was 91.7% [middle of 8 runs], the viability, T/C (compound 0.0316 µM) was 88.2% [middle of 8 runs] and the viability, T/C (compound 0.1 µM) was 75.5% [middle of 8 runs]. For the same molecule, the viability, T/C (compound 0.316 µM) was 67.3% [middle of 8 runs], the viability, T/C (compound 1 µM) was 65.1% [middle of 8 runs] and the IC50 (compound alone, run of 06/13/2023) was greater than 1 µM.
